Results from PubChem BioAssay AID2060906 (Molecular Pharmacology Branch, DTP, NCI, 2025).

Tested on: 485176-168-R4-J1-PDC complex spheroid growth
Test: Anticancer human tumor 485176-168-R4-J1-PDC patient-derived pancreatic adenocarcinoma cell line growth inhibition [RAS]
Details: for IC50: curve of first compound; for viability, T/C: stronger effect = lower value; active = viability on the fitted dose curve at most 10% of control; inactive = the rest
Procedure, shortened: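 Tumour cells grown as complex spheroids with HUVEC endothelial cells and mesenchymal stem cells, treated with RAS pathway inhibitor combinations. Each agent spans half-log steps from near clinical Cmax, or 10 microM where Cmax is unknown.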
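Also: spheroids exposed to compounds for seven days before readout.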
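For viability, T/C in this document: luminescence viability expressed relative to DMSO vehicle wells set as 100%.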

CC(=O)OC12COC1CC(O)C1(C)C(=O)C(O)C3=C(C)C(OC(=O)C(O)C(NC(=O)OC(C)(C)C)c4ccccc4)CC(O)(C(OC(=O)c4ccccc4)C21)C3(C)C (configuration not stated) + CCn1c(-c2cccnc2C(C)OC)c2c3cc(ccc31)N1CCOC(CC(NC(=O)C(C(C)C)N(C)C(=O)C3(F)CCN(C(=O)C#CC(C)(C)N(C)C)CC3)C(=O)N3CCCC(N3)C(=O)OCC(C)(C)C2)C1
inactive: viability, T/C (second compound 0.000949 µM, first compound 0.0316 µM) 13.4% | viability, T/C (second compound 0.000949 µM, first compound 0.1 µM) 13.8% | viability, T/C (second compound 0.000949 µM, first compound 0.316 µM) 13.9% | viability, T/C (second compound 0.000949 µM, first compound 1 µM) 10.7% | viability, T/C (second compound 0.000949 µM, first compound 3.16 µM) 13.2% | viability, T/C (second compound 0.000949 µM, first compound 10 µM) 17.7% | viability, T/C (second compound 0.003 µM, first compound 0.0316 µM) 15.3% | viability, T/C (second compound 0.003 µM, first compound 0.1 µM) 12.7% | viability, T/C (second compound 0.003 µM, first compound 0.316 µM) 12.2% | viability, T/C (second compound 0.003 µM, first compound 1 µM) 14% | viability, T/C (second compound 0.003 µM, first compound 3.16 µM) 14.4% | viability, T/C (second compound 0.003 µM, first compound 10 µM) 16.7% | viability, T/C (second compound 0.00949 µM, first compound 0.0316 µM) 15.4% | viability, T/C (second compound 0.00949 µM, first compound 0.1 µM) 14.8% | viability, T/C (second compound 0.00949 µM, first compound 0.316 µM) 12.1% | viability, T/C (second compound 0.00949 µM, first compound 1 µM) 11.9% | viability, T/C (second compound 0.00949 µM, first compound 3.16 µM) 15% | viability, T/C (second compound 0.00949 µM, first compound 10 µM) 17.6% | viability, T/C (second compound 0.03 µM, first compound 0.0316 µM) 14.9% | viability, T/C (second compound 0.03 µM, first compound 0.1 µM) 12.4% | viability, T/C (second compound 0.03 µM, first compound 0.316 µM) 11.1% | viability, T/C (second compound 0.03 µM, first compound 1 µM) 10.3% | viability, T/C (second compound 0.03 µM, first compound 3.16 µM) 14.1% | viability, T/C (second compound 0.03 µM, first compound 10 µM) 16.8% | viability, T/C (second compound 0.0949 µM, first compound 0.0316 µM) 11.2% | viability, T/C (second compound 0.0949 µM, first compound 0.1 µM) 10.4% | viability, T/C (second compound 0.0949 µM, first compound 0.316 µM) 8.86% | viability, T/C (second compound 0.0949 µM, first compound 1 µM) 9.58% | viability, T/C (second compound 0.0949 µM, first compound 3.16 µM) 13.1% | viability, T/C (second compound 0.0949 µM, first compound 10 µM) 16.4% | viability, T/C (second compound 0.3 µM, first compound 0.0316 µM) 11.5% | viability, T/C (second compound 0.3 µM, first compound 0.1 µM) 9.61% | viability, T/C (second compound 0.3 µM, first compound 0.316 µM) 7.21% | viability, T/C (second compound 0.3 µM, first compound 1 µM) 9.28% | viability, T/C (second compound 0.3 µM, first compound 3.16 µM) 11.9% | viability, T/C (second compound 0.3 µM, first compound 10 µM) 16.4%
< 31.6 nM: IC50 (second compound 0.000949 µM) | IC50 (second compound 0.003 µM) | IC50 (second compound 0.00949 µM) | IC50 (second compound 0.03 µM) | IC50 (second compound 0.0949 µM) | IC50 (second compound 0.3 µM)
